“Also recorded” adds a separate entry of the source.
What was measured:
AID+/+ or AID−/− B-cells = assay: Cell cycle analysis by propidium iodide staining and flow cytometry; format: cell-based; conditions: 100 nM, up to 96 hours
Method: AID+/+ or AID−/− B-cells were cultured with 100 nM and cell cycle profiles were determined by propidium iodide staining and flow cyotmetry at intervals up to 96 hours. Non-activated (CD40) cells were used as a negative control; activated cells treated with the microtuble poison colcemid (ACT+colcemid) were used as a positive control.
AID+/+ or AID−/− B-cells were cultured with 100 nM and cell cycle profiles were determined by propidium iodide staining and flow cyotmetry at intervals up to 96 hours. Non-activated (CD40) cells were used as a negative control; activated cells treated with the microtuble poison colcemid (ACT+colcemid) were used as a positive control. Nuclei fragmentation analysis of primary, AID expressing B-cells treated with 100 nM C-1523 was conducted (FIG. 22).

CCRF-SB cells = assay: Viability of human B cell tumor cell line (Trypan Blue); format: cell-based
Method: FIG. 15A depicts an analysis of primary WT (AID+/+, closed markers) and AID−/− (open markers) murine B cell proliferation under activating conditions (αCD40 and IL-4 on days 0 and 2) and treated with the indicated doses of C-1523 for 4 days. Measurement of cell proliferation was determined by Trypan Blue staining and counting of viable, non-staining, cells via hemocytometer. Data are represented as the mean cell count for each condition. FIG. 15B depicts data from experiments in which primary B cells from A were stained with PI on day 4 and analyzed via flow cytometry for the percentage of cells that were non-viable, PI-positive (PI+). FIG. 15C depicts RT-PCR analysis of AID expression in cultured human cell lines. Water (H2O) and RNA from HEK293T cells were employed as negative controls for template and AID expression, respectively, and human activated B lymphocyte RNA (Stim B) was used as a positive control. GAPDH expression was included as a loading control. FIG. 15D depicts viability analysis of CCRF-SB, MEC-1, and MEC-2 cells after 6 days in culture with the indicated concentrations of C-1523, 150 μM DIDS, or DMSO vehicle. Viability was determined by Trypan Blue staining and counting via hemocytometer. FIG. 15E depicts representative immunofluorescence images of phosphorylated γH2AX (green) and nuclei (DAPI, blue) in primary murine splenic B cells from AID−/− (left) or AID+/+ (WT, right) mice. Cells were activated with αCD40 and IL-4 and treated with 100 nM C-1523 for 3 d. Scale bars, 10 μM. FIG. 15F depicts quantitation of foci observed in AID−/− and WT cells represented in FIG. 15E. Data were grouped into categories of cells with low (1-2 foci per nucleus), moderate (3-10 foci per nucleus), or high (>10 foci per nucleus) amounts of DNA damage. Error bars represent the SEM for three independent experiments.
FIG. 23 depicts graphs of viability analysis for human cancer cell lines treated with C-1523. The acute lymphoblastic leukemia (ALL) line CCRF-SB and the chronic lymphocytic leukemia lines MEC1 and MEC2 were treated with vehicle (DMSO) or 100 nM C-1523, and viability was measured by Tyrpan blue exclusion. All three lines express AID and are sensitive to C-1523 treatment.
The effect of C-1523 on the viability of AID-expressing human B cell tumor cell lines was further tested ([…]). CCRF-SB is an acute lymphoblastic leukemia cell line derived from a buffy coat preparation (Foley et al., 1968). MEC-1 and MEC-2 are cell lines derived from a patient with chronic lymphocytic leukemia at two different timepoints (before and after fludarabine and rituximab therapy) (Stacchini et al., 1999). C-1523 was tested in these cell lines over a dose range from 1 to 1000 nM, in log increments, and compared to 150 μM DIDS. […] Biphasic or hormetic responses for small molecules can reflect a number of biochemical/biological mechanisms (Calabrese, 2013).
Cell lines and cell culture. […] Immunofluorescence.

CC(=O)Nc1ccc(/C=C/c2ccc(NC(=S)NC(C)C)cc2S(=O)(=O)O)c(S(=O)(=O)O)c1 [C-1523, (E)-5-acetamido-2-(4-(3-isopropylthioureido)-2-sulfonatostyryl)benzenesulfonate]
effect on cell cycle (AID+/+ or AID−/− B-cells): minimal effect on cell cycle; also recorded: minimal differences
sensitivity (viability) (CCRF-SB cells; 100 nM): sensitive
viability reduction at highest dose (CCRF-SB cells; 1000 nM): less than that observed after treatment with 100 nM
concentration of greatest viability reduction (CCRF-SB cells; 1 to 1000 nM): 100 nM
viability response over dose range (CCRF-SB cells; 1 to 1000 nM, 6 days): dose-dependent viability response

From patent US10927075B2, “Compositions and methods relating to the treatment of cancer, autoimmune disease, and neurodegenerative disease” (THE JACKSON LABORATORY, priority 2014, dated 2021)
